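Tested at 5 concentrations; 48 h exposure; 96-well plates; endpoints linearly interpolated, else capped at highest concentration. GI50 = concentration required for 50% inhibition of growth.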 Activity calls are given as the source filed them. Rule as the data show it: active = GI50 up to about 1.1 µM and inactive = higher.
Experiments:
Assay in all cases: NCI anticancer screen, dose series, 48 h
CAKI-1 = system: CAKI-1
SK-MEL-2 = system: SK-MEL-2
SK-OV-3 = system: SK-OV-3
UACC-62 = system: UACC-62
HT-29 = system: HT-29
MDA-MB-435 = system: MDA-MB-435
SF-539 = system: SF-539
PC-3 = system: PC-3
OVCAR-5 = system: OVCAR-5
A549 = system: A549
IGROV-1 = system: IGROV-1
BT-549 = system: BT-549
MOLT-4 = system: MOLT-4
SK-MEL-28 = system: SK-MEL-28
OVCAR-4 = system: OVCAR-4
EKVX = system: EKVX
K562 = system: K562
MDA-N = system: MDA-N
UACC-257 = system: UACC-257
NCI-H460 = system: NCI-H460
OVCAR-3 = system: OVCAR-3
NCI-H522 = system: NCI-H522
DU-145 = system: DU-145
SR = system: SR
SK-MEL-5 = system: SK-MEL-5
SF-295 = system: SF-295
786-0 = system: 786-0
T47D = system: T47D
SW-620 = system: SW-620
M14 = system: M14
MCF7 = system: MCF7
MDA-MB-231 = system: MDA-MB-231
OVCAR-8 = system: OVCAR-8
Hs-578T = system: Hs-578T
HCT-116 = system: HCT-116
ACHN = system: ACHN
Malme-3M = system: Malme-3M
SNB-19 = system: SNB-19
HOP-92 = system: HOP-92
RXF 393 = system: RXF 393
UO-31 = system: UO-31
NCI-H23 = system: NCI-H23
HCT-15 = system: HCT-15
U-251 = system: U-251
SN12C = system: SN12C
HOP-62 = system: HOP-62
SF-268 = system: SF-268
SNB-75 = system: SNB-75
CCRF-CEM = system: CCRF-CEM
NCI/ADR-RES = system: NCI/ADR-RES
TK-10 = system: TK-10
COLO 205 = system: COLO 205
LOX IMVI = system: LOX IMVI
A498 = system: A498
NCI-H226 = system: NCI-H226
KM12 = system: KM12
RPMI-8226 = system: RPMI-8226
HCC 2998 = system: HCC 2998
HL-60 = system: HL-60

Question: `COC(=O)c1ccc(NCC2=CC(=O)C=CC2=O)cc1O` was tested. Which GI50 (CAKI-1) did it give?
Answer: 18.6 µM (inactive)

Question: What about the GI50 (SK-MEL-2) of the same compound?
Answer: 44.2 µM (inactive)

Question: And the GI50 (SK-OV-3)?
Answer: 20.4 µM (inactive)

Question: What about the GI50 (UACC-62) of the same compound?
Answer: 15.7 µM (inactive)

Question: And the GI50 (HT-29)?
Answer: 19.6 µM (inactive)

Question: And the GI50 (MDA-MB-435)?
Answer: 29.4 µM (inactive)

Question: What about the GI50 (SF-539) of the same compound?
Answer: 13.5 µM (inactive)

Question: And the GI50 (PC-3)?
Answer: 31.8 µM (inactive)

Question: What about the GI50 (OVCAR-5) of the same compound?
Answer: 18.8 µM (inactive)

Question: What about the GI50 (A549) of the same compound?
Answer: 32.6 µM (inactive)

Question: What about the GI50 (IGROV-1) of the same compound?
Answer: 17.3 µM (inactive)

Question: And the GI50 (BT-549)?
Answer: 11.4 µM (inactive)

Question: And the GI50 (MOLT-4)?
Answer: 8.87 µM (inactive)

Question: And the GI50 (SK-MEL-28)?
Answer: 46 µM (inactive)

Question: What about the GI50 (OVCAR-4) of the same compound?
Answer: 16.6 µM (inactive)

Question: And the GI50 (EKVX)?
Answer: 17.7 µM (inactive)

Question: What about the GI50 (K562) of the same compound?
Answer: 3.33 µM (inactive)

Question: And the GI50 (MDA-N)?
Answer: 16.4 µM (inactive)

Question: And the GI50 (UACC-257)?
Answer: 16.2 µM (inactive)

Question: And the GI50 (NCI-H460)?
Answer: 21 µM (inactive)

Question: And the GI50 (OVCAR-3)?
Answer: 11.5 µM (inactive)

Question: And the GI50 (NCI-H522)?
Answer: 2.11 µM (inactive)

Question: What about the GI50 (DU-145) of the same compound?
Answer: 15.2 µM (inactive)

Question: What about the GI50 (SR) of the same compound?
Answer: > 100 µM (inactive)

Question: And the GI50 (SK-MEL-5)?
Answer: 24.4 µM (inactive)

Question: What about the GI50 (SF-295) of the same compound?
Answer: 17.7 µM (inactive)

Question: What about the GI50 (786-0) of the same compound?
Answer: 15.7 µM (inactive)

Question: And the GI50 (T47D)?
Answer: 8.43 µM (inactive)

Question: And the GI50 (SW-620)?
Answer: 24.3 µM (inactive)

Question: And the GI50 (M14)?
Answer: 20.9 µM (inactive)

Question: And the GI50 (MCF7)?
Answer: 20.8 µM (inactive)

Question: What about the GI50 (MDA-MB-231) of the same compound?
Answer: 16.8 µM (inactive)

Question: And the GI50 (OVCAR-8)?
Answer: 15.5 µM (inactive)

Question: What about the GI50 (Hs-578T) of the same compound?
Answer: 48.6 µM (inactive)

Question: And the GI50 (HCT-116)?
Answer: 17.2 µM (inactive)

Question: What about the GI50 (ACHN) of the same compound?
Answer: 13.8 µM (inactive)

Question: What about the GI50 (Malme-3M) of the same compound?
Answer: 10.6 µM (inactive)

Question: And the GI50 (SNB-19)?
Answer: 19.7 µM (inactive)

Question: What about the GI50 (HOP-92) of the same compound?
Answer: 2.92 µM (inactive)

Question: And the GI50 (RXF 393)?
Answer: 19.9 µM (inactive)

Question: What about the GI50 (UO-31) of the same compound?
Answer: 12.7 µM (inactive)

Question: What about the GI50 (NCI-H23) of the same compound?
Answer: 17.9 µM (inactive)

Question: And the GI50 (HCT-15)?
Answer: 16.5 µM

Question: And the GI50 (U-251)?
Answer: 36.5 µM (inactive)

Question: And the GI50 (SN12C)?
Answer: 21.5 µM (inactive)

Question: What about the GI50 (HOP-62) of the same compound?
Answer: 18.1 µM (inactive)

Question: And the GI50 (SF-268)?
Answer: 28.9 µM (inactive)

Question: And the GI50 (SNB-75)?
Answer: 19 µM (inactive)

Question: And the GI50 (CCRF-CEM)?
Answer: 5.32 µM (inactive)

Question: What about the GI50 (NCI/ADR-RES) of the same compound?
Answer: 18.1 µM (inactive)

Question: And the GI50 (TK-10)?
Answer: 14.4 µM (inactive)

Question: What about the GI50 (COLO 205) of the same compound?
Answer: 13.2 µM (inactive)

Question: And the GI50 (LOX IMVI)?
Answer: 16.8 µM (inactive)

Question: What about the GI50 (A498) of the same compound?
Answer: 17.2 µM (inactive)

Question: What about the GI50 (NCI-H226) of the same compound?
Answer: 19.5 µM (inactive)

Question: What does the source list for `CCOC(=O)c1c2cccccc-2nc1Nc1cccc2c(C)ccnc12`?
Answer: GI50 (CAKI-1): > 10 µM (inactive); GI50 (SK-MEL-2): > 10 µM (inactive); GI50 (SK-OV-3): > 10 µM (inactive); GI50 (UACC-62): 9.77 µM (inactive); GI50 (HT-29): 4.89 µM (inactive); GI50 (KM12): > 10 µM (inactive); GI50 (MDA-MB-435): > 10 µM (inactive); GI50 (RPMI-8226): 3.03 µM (inactive); GI50 (SF-539): > 10 µM (inactive); GI50 (PC-3): 5.75 µM (inactive); GI50 (OVCAR-5): > 10 µM (inactive); GI50 (A549): > 10 µM (inactive); GI50 (IGROV-1): 4.82 µM (inactive); GI50 (BT-549): > 10 µM (inactive); GI50 (MOLT-4): 5.16 µM (inactive); GI50 (SK-MEL-28): > 10 µM (inactive); GI50 (OVCAR-4): 4.82 µM (inactive); GI50 (EKVX): > 10 µM (inactive); GI50 (K562): 4.01 µM (inactive); GI50 (MDA-N): > 10 µM (inactive); GI50 (UACC-257): 9.2 µM (inactive); GI50 (NCI-H460): 7.31 µM (inactive); GI50 (OVCAR-3): 4.81 µM (inactive); GI50 (DU-145): > 10 µM (inactive); GI50 (SR): 9.95 µM (inactive); GI50 (SK-MEL-5): > 10 µM (inactive); GI50 (SF-295): > 10 µM (inactive); GI50 (786-0): > 10 µM (inactive); GI50 (T47D): 2.66 µM (inactive); GI50 (SW-620): > 10 µM (inactive); GI50 (M14): > 10 µM (inactive); GI50 (MCF7): 8.24 µM (inactive); GI50 (MDA-MB-231): > 10 µM (inactive); GI50 (OVCAR-8): > 10 µM (inactive); GI50 (HCC 2998): > 10 µM (inactive); GI50 (Hs-578T): > 10 µM (inactive); GI50 (HCT-116): 5.12 µM (inactive); GI50 (ACHN): 6.14 µM (inactive); GI50 (Malme-3M): > 10 µM (inactive); GI50 (SNB-19): > 10 µM (inactive); GI50 (HOP-92): > 10 µM (inactive); GI50 (RXF 393): > 10 µM (inactive); GI50 (UO-31): 9.16 µM (inactive); GI50 (NCI-H23): > 10 µM (inactive); GI50 (HCT-15): 6.31 µM; GI50 (U-251): > 10 µM (inactive); GI50 (SN12C): > 10 µM (inactive); GI50 (HL-60): 4.47 µM (inactive); GI50 (HOP-62): > 10 µM (inactive); GI50 (SF-268): > 10 µM (inactive); GI50 (CCRF-CEM): 4.88 µM (inactive); GI50 (NCI/ADR-RES): > 10 µM (inactive); GI50 (TK-10): > 10 µM (inactive); GI50 (COLO 205): 7.43 µM (inactive); GI50 (LOX IMVI): > 10 µM (inactive); GI50 (A498): > 10 µM (inactive); GI50 (NCI-H226): > 10 µM (inactive)

— ChEMBL document CHEMBL1201862, “PubChem BioAssay data set” (2004)
